Key:
Format in all cases: cell-based
human TLR7 = biological target: T1, human TLR7 (Homo sapiens, UniProt Q9NYK1); test: TLR7 inhibition reporter assay (HEK-Blue cells, SEAP reporter, gardiquimod stimulation); settings: HEK-Blue cells overexpressing human TLR7, SEAP reporter, gardiquimod 7.5 μM
T1 construct: host or cells: HEK-Blue cells
T1 sequence (Q9NYK1 27-1049): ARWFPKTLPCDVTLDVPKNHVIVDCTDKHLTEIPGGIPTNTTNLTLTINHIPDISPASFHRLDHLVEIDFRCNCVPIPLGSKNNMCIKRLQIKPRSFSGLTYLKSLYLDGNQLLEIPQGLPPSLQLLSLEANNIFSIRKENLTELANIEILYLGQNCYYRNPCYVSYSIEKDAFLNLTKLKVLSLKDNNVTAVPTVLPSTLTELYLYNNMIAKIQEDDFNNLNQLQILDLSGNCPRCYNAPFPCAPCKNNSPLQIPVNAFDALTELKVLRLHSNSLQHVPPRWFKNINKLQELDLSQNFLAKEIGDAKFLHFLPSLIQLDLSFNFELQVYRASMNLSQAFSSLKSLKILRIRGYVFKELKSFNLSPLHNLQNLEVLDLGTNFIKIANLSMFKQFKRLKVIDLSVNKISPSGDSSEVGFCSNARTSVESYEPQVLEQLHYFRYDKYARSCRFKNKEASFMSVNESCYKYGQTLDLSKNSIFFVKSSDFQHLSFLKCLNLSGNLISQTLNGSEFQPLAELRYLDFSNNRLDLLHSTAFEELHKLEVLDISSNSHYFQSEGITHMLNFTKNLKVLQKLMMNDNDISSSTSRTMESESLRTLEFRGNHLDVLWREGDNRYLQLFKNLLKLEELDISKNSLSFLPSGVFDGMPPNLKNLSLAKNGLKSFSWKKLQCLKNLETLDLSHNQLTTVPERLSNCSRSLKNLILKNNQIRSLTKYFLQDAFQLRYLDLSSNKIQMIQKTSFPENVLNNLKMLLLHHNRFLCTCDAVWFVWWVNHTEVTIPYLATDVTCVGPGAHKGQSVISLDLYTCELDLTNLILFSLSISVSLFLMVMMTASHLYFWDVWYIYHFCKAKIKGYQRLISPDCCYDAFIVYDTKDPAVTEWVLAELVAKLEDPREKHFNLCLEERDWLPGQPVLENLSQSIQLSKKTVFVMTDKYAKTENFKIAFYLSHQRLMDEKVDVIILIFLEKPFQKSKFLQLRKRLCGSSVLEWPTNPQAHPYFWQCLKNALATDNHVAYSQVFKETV
Experimental: (§1) TLR7/8/9 Inhibition Reporter Assays
(§2) HEK-Blue™-cells (Invivogen) overexpressing human TLR7, TLR8 or TLR9 receptors were used for screening inhibitors of these receptors using an inducible SEAP (secreted embryonic alkaline phosphatase) reporter gene under the control of the IFN-β minimal promoter fused to five NF-κB and AP-1-binding sites. Briefly, cells are seeded into Greiner 384 well plates (15000 cells per well for TLR7, 20,000 for TLR8 and 25,000 for TLR9) and then treated with test compounds in DMSO to yield a final dose response concentration range of 0.05 nM-50 μM. After a 30 minute compound pre-treatment al room temperature, the cells are then stimulated with a TLR7 ligand (gardiquimod at a final concentration of 7.5 μM), TLR8 ligand (R848 at a final concentration of 15.9 μM) or TLR9 ligand (ODN2006 at a final concentration of 5 nM) to activate NF-κB and AP-1 which induce the production of SEAP. After a 22 hour incubation at 37° C., 5% CO2, SEAP levels are determined with the addition of HEK-Blue™ Detection reagent (Invivogen), a cell culture medium that allows for detection of SEAP, according to manufacturer's specifications. The percent inhibition is determined as the % reduction in the HEK-Blue signal present in wells treated with agonist plus DMSO alone compared to wells treated with a known inhibitor.

human TLR9 = biological target: T2, human TLR9 (Homo sapiens, UniProt Q9NR96); test: TLR9 inhibition reporter assay (HEK-Blue cells, SEAP reporter, ODN2006 stimulation); settings: HEK-Blue cells overexpressing human TLR9, SEAP reporter, ODN2006 5 nM
T2 construct: host or cells: HEK-Blue cells
T2 sequence (Q9NR96 26-1032): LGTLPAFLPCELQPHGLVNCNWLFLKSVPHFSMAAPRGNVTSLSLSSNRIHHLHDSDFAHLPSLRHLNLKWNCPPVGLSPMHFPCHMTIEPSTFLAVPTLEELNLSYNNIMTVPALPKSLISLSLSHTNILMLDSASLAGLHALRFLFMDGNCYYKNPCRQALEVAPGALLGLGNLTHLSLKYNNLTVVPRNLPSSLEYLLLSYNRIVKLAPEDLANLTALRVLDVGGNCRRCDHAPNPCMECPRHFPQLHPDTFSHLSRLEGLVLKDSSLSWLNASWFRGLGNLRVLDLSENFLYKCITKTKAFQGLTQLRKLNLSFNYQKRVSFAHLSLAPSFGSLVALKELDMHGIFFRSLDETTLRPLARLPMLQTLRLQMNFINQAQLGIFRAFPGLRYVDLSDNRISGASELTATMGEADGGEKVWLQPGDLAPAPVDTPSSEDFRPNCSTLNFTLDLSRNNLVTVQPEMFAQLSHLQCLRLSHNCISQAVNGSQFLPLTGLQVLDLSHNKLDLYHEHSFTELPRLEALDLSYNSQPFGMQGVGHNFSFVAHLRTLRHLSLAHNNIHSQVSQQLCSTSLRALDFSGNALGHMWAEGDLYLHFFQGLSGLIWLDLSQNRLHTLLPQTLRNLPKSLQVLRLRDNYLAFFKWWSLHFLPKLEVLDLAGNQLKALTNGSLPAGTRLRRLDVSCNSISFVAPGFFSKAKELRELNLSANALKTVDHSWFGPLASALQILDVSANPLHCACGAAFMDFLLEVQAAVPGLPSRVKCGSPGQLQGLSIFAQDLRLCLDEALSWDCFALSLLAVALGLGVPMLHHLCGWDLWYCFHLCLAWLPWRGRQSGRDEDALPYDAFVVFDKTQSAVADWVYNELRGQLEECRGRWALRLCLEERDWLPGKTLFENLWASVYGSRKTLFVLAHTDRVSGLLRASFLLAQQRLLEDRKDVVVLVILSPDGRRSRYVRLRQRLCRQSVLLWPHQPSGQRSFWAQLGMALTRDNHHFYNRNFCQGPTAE
Experimental: as §1, §2

human TLR8 = biological target: T3, human TLR8 (Homo sapiens, UniProt Q9NR97); test: TLR8 inhibition reporter assay (HEK-Blue cells, SEAP reporter, R848 stimulation); settings: HEK-Blue cells overexpressing human TLR8, SEAP reporter, R848 15.9 μM
T3 construct: host or cells: HEK-Blue cells
T3 sequence (Q9NR97 27-1041): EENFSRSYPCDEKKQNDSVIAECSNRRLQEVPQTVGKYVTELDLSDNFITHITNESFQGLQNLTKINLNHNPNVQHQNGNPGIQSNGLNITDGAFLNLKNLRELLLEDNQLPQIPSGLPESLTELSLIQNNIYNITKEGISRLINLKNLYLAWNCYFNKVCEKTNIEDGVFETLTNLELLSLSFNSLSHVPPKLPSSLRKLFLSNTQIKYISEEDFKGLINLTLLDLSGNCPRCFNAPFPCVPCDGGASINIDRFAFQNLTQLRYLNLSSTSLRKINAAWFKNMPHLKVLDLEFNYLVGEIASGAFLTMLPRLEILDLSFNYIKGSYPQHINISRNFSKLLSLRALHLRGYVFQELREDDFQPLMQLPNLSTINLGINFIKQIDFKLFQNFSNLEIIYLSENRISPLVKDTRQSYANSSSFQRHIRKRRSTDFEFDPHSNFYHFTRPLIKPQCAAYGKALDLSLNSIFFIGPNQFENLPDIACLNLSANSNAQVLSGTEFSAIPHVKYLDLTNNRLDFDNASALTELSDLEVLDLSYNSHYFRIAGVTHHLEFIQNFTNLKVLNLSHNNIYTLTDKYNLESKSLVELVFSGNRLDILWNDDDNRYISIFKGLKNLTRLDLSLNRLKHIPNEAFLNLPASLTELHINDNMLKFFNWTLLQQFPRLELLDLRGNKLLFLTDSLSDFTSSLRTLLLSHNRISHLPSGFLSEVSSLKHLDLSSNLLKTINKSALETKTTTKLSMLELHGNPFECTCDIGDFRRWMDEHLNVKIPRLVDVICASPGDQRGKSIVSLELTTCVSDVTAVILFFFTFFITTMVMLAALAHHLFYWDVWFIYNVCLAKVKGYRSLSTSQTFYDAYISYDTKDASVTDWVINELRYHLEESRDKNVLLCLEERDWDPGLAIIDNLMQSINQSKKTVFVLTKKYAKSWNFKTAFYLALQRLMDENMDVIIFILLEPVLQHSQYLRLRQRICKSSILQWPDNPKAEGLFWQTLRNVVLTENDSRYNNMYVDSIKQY
Experimental: as §1, §2

Row | IC50 (human TLR7) | IC50 (human TLR9) | IC50 (human TLR8) | Compound
1 | 2 nM | 4650 nM | 7.5 nM | Cc1cc(-c2[nH]c3ccc(C4CCC(NC5(C)COC5)CC4)cc3c2C(C)C)cn2ncnc12 (single isomer, unassigned) [Example 47]
2 | 7 nM | 391 nM | 22 nM | COc1ccc(CNC2CCC(c3ccc4[nH]c(-c5cc(C)nc(C)c5)c(C(C)C)c4c3)CC2)cc1 (single isomer, unassigned) [Example 49]
3 | 68 nM | 622 nM | 149 nM | COc1ccc(CNC2CCC(c3ccc4[nH]c(-c5cc(C)nc(C)c5)c(C(C)C)c4c3)CC2)cc1 (single isomer, unassigned) [Example 50]
4 | 4 nM | 602 nM | 11 nM | CNC1CCC(c2ccc3[nH]c(-c4cc(C)nc(C)c4)c(C(C)C)c3c2)CC1 (single isomer, unassigned) [Example 51]
5 | 0.42 nM | 331 nM | 1.8 nM | CNC1CCC(c2ccc3[nH]c(-c4cc(C)nc(C)c4)c(C(C)C)c3c2)CC1 (single isomer, unassigned) [Example 52]
6 | 0.55 nM | 600 nM | 2.9 nM | Cc1cc(-c2[nH]c3ccc(C4CCC(N(C)C)CC4)cc3c2C(C)C)cc(C)n1 (single isomer, unassigned) [Example 53]
7 | 0.17 nM | 1370 nM | 0.81 nM | CNC1CCC(c2ccc3[nH]c(-c4cc(C)c5ncnn5c4)c(C(C)C)c3c2)CC1 (single isomer, unassigned) [Example 56]
8 | 2 nM | 3100 nM | 6.6 nM | CNC1CCC(c2ccc3[nH]c(-c4cc(C)c5ncnn5c4)c(C(C)C)c3c2)CC1 (single isomer, unassigned) [Example 58]
9 | 0.23 nM | 1150 nM | 1.3 nM | CCN(C)C1CCC(c2ccc3[nH]c(-c4cc(OC)c5ncnn5c4)c(C(C)C)c3c2)CC1 (single isomer, unassigned) [Example 65]

More lines, now with the values behind:

Row | Compound | IC50 (human TLR7) | IC50 (human TLR9) | IC50 (human TLR8)
10 | COc1cc(-c2[nH]c3ccc(C4CCC(N5CC(O)C5)CC4)cc3c2C(C)C)cn2ncnc12 (single isomer, unassigned) [Example 22] | 0.85 nM | 1200 nM | 3.9 nM
11 | Cc1c(-c2[nH]c3ccc(C4CCC(N5CC(CO)(CO)C5)CC4)cc3c2C(C)C)cn2ncnc2c1C (single isomer, unassigned) [Example 26] | 0.92 nM | 260 nM | 0.84 nM
12 | Cc1c(-c2[nH]c3ccc(C4CCC(N5CC(CO)(CO)C5)CC4)cc3c2C(C)C)cn2ncnc2c1C (single isomer, unassigned) [Example 27] | 2 nM | 1760 nM | 2.8 nM
13 | Cc1cc(-c2[nH]c3ccc(C4CCC(N5CCN(C)CC5)CC4)cc3c2C(C)C)cc(C)n1 (single isomer, unassigned) [Example 36] | 2 nM | 417 nM | 3.9 nM
14 | Cc1cc(-c2[nH]c3ccc(C4CCC(N5CCN(C)CC5)CC4)cc3c2C(C)C)cc(C)n1 (single isomer, unassigned) [Example 37] | 29 nM | 583 nM | 56 nM
15 | COCCN1CCN(C2CCC(c3ccc4[nH]c(-c5cc(OC)c6ncnn6c5)c(C(C)C)c4c3)CC2)CC1 (single isomer, unassigned) [Example 38] | 1 nM | 2090 nM | 2.1 nM
16 | COCCN1CCN(C2CCC(c3ccc4[nH]c(-c5cc(OC)c6ncnn6c5)c(C(C)C)c4c3)CC2)CC1 (single isomer, unassigned) [Example 39] | 9 nM | 2230 nM | 5.8 nM
17 | COc1cc(-c2[nH]c3ccc(C4CCC(NC5(C)COC5)CC4)cc3c2C(C)C)cn2ncnc12 (single isomer, unassigned) [Example 44] | 0.21 nM | 1960 nM | 0.76 nM
18 | COc1cc(-c2[nH]c3ccc(C4CCC(NC5(C)COC5)CC4)cc3c2C(C)C)cn2ncnc12 (single isomer, unassigned) [Example 45] | 1 nM | 1990 nM | 3.8 nM
19 | Cc1cc(-c2[nH]c3ccc(C4CCC(NC5(C)COC5)CC4)cc3c2C(C)C)cn2ncnc12 (single isomer, unassigned) [Example 46] | 0.1 nM | 1510 nM | 0.84 nM

From patent publication US11878975B2, “Substituted indole compounds useful as TLR inhibitors” (BRISTOL-MYERS SQUIBB COMPANY, priority 2017, dated 2024)
